Test results reported in patent publication US20180015167A1, “CROSSLINKABLE TREHALOSE FOR THE COVALENT INCORPORATION IN HYDROGELS AND METHODS OF USE” (INVIVO THERAPEUTICS CORPORATION, priority 2013, published 2018).

Test: Solubility of hydrogel precursors in water / aqueous buffer
Format: physicochemical
Experimental: Hydrogels formed by mixing trehalose diacrylate and thiol-containing 4-arm PEG of molecular weight 5000 (4arm-PEG5k-SH). Briefly, trehalose diacrylate was dissolved in PBS (pH7.4, 1.06 mM potassium phosphate monobasic, 150 mM sodium chloride, 2.97 mM sodium phosphate dibasic) to prepare a trehalose-containing precursor solution at a concentration of 50 mg/ml. 9.42 mg 4arm-PEG5k-SH (0.0075 mmol thiols) was dissolved in 66.1 μl PBS and the solution was mixed with 33.9 μl trehalose diacrylate solution (1.7 mg, 1 molar equivalents based on thiols) and by vortexing.
Hydrogels formed by mixing ethoxylated-trimethylolpropan tri(thioglycolate) (TMPE-TGA), PEG diacrylate, and varying amounts of trehalose diacrylate. The following protocol has been used for gel formulation at the 150 μl scale. Briefly, TMPE-TGA was dissolved in PBS to prepare a 40 wt % thiol-containing precursor solution. Trehalose diacrylate was dissolved in PBS to prepare a trehalose-containing precursor solution at a concentration of 40 mg/ml. 10.875 mg PEG diacrylate of molecular weight 700 (PEGDA700, 0.75 molar equivalents based on thiols) was dissolved in 49.94 μl PBS and the solution was mixed with 58.3 μl trehalose diacrylate solution (2.33 mg, 0.25 molar equivalents based on thiols) and 41.8 μl TMPE-TGA solution (0.041 mmol thiols) by vortexing. […]

For `C=CC(=O)OC[C@H]1O[C@H](O[C@H]2O[C@H](COC(=O)C=C)[C@@H](O)[C@H](O)[C@H]2O)[C@H](O)[C@@H](O)[C@@H]1O` [trehalose diacrylate], the “solubility in aqueous buffer” value (PBS pH7.4, room temperature) was “soluble in aqueous buffer” and the water solubility (PBS, room temperature) was “water soluble”.
